A short description of data set [1]: Pre-test: latanoprost dissolved in the HA vehicle (HPLC). It counts as physicochemical. The following applies: vehicle 0.15% w/v hylan A in phosphate buffered saline pH 7.4, 25 or 50 μg/ml added, stirred 18 hours at 40° C. As for the experimental part: Sterile bulk solution for the production of COMFORT SHIELD® MDS eye drops (i.com medical GmbH, Munich, Germany) was used as vehicle for the preparation of prototype latanoprost bulk solution (PLBS). The vehicle contained 0.15% w/v hylan A (HA with 2.9 m^3/kg intrinsic viscosity) dissolved in phosphate buffered saline solution (8.035 g/l NaCl; 1.2 mmol/l Na2HPO4/NaH2PO4; pH 7.4). Latanoprost was obtained from Yonsung Fine Chemicals Co. Ltd., Gyeonggi-do, Republic of Korea. PLBS was prepared by medi-pharm Laboratorium GmbH, Falkensee, Germany by dissolving 20±1 μg/ml latanoprost in the vehicle.
In a pre-test 25 μg/ml and 50 μg/ml latanoprost were added to the vehicle and the solution stirred for 18 hours at 40° C. The latanoprost content was determined by HPLC using a Hypersil B D S C18 […], 150.0×4.0 mm column (VDS optilab) and a UV detector (200 nm).

The conditions of data set [2]: PubChem CID 5311221; cited from earlier work.

These results are taken from US20230233687A1, “HYALURONIC ACID-BASED FORMULATIONS FOR TREATMENT AND PREVENTION OF OCULAR HYPERTENSION AND GLAUCOMA” (I.COM MEDICAL GMBH, priority 2020, published 2023).

`CC(C)OC(=O)CCC/C=C\C[C@@H]1[C@@H](CC[C@@H](O)CCc2ccccc2)[C@H](O)C[C@@H]1O` [latanoprost]: the “latanoprost dissolved in the vehicle” value in data set [1] is 20.8 µg/mL. In addition, the “solubility of latanoprost in water” value in data set [2] was 12.9 µg/mL.
